{"source": "patent US8765409B2", "about": "“Efficient production of heterologous proteins using mannosyl transferase inhibitors” (Merck Sharp & Dohme Corp., priority 2008, dated 2014)", "key": {"[1]": {"system": "O-glycosylation of human anti-Her2 antibody in Pichia pastoris strain yGLY4280 (Pmt-mediated)", "assay": "O-glycan occupancy of secreted anti-Her2 antibody (Dionex HPAEC-PAD) from shake-flask cultures treated with Pmt inhibitor", "format": "cell-based", "conditions": "inhibitor 0.15 ug/mL added at induction; 24 hr in induction media; protein A purified anti-Her2; no inhibitor >14.0", "experimental": "Anti-Her2 protein expression for strain yGLY4280 was carried out in shake flasks at 24° C. with buffered glycerol-complex medium (BMGY) consisting of 1% yeast extract, 2% peptone, 100 mM potassium phosphate buffer pH 6.0, 1.34% yeast nitrogen base, 4×10-5% biotin, and 1% glycerol. The induction medium for protein expression was buffered methanol-complex medium (BMMY) consisting of 1% methanol instead of glycerol in BMGY. Pmt inhibitors in 100% methanol were added to the growth medium to a final concentration of 0.15 ug/mL at the time the induction medium was added. This is an intermediate dose that is sufficient to reduce O-glycosylation to roughly 50% of that observed without Pmt inhibitor treatment, and thus allows a comparison of potency for the different inhibitors. Following 24 hr further growth in the induction media, cultures were harvested and centrifuged at 2,000 rpm for five minutes to remove cells from the supernatant.\nO-glycan determination was performed using a Dionex-HPLC(HPAEC-PAD) as follows. To measure O-glycosylation reduction, protein was purified from the growth medium using protein A chromatography (Li et al. Nat. Biotechnol. 24(2):210-5 (2006)) and the O-glycans released from and separated from protein by alkaline elimination (beta-elimination) (Harvey, Mass Spectrometry Reviews 18: 349-451 (1999)). This process also reduces the newly formed reducing terminus of the released O-glycan (either oligomannose or mannose) to mannitol. The mannitol group thus serves as a unique indicator of each O— glycan. 0.5 nmole or more of protein, contained within a volume of 100 μL PBS buffer, was required for beta elimination. The sample was treated with 25 μL alkaline borohydride reagent and incubated at 50° C. for 16 hours. About 20 uL arabitol internal standard was added, followed by 10 μL glacial acetic acid. The sample was then centrifuged through a Millipore filter containing both SEPABEADS and AG 50W-X8 resin and washed with water. The samples, including wash, were transferred to plastic autosampler vials and evaporated to dryness in a centrifugal evaporator. 150 μL 1% AcOH/MeOH was added to the samples and the samples evaporated to dryness in a centrifugal evaporator. This last step was repeated five more times. 200 μL of water was added and 100 μL of the sample was analyzed by high pH anion-exchange chromatography coupled with pulsed electrochemical detection-Dionex HPLC(HPAEC-PAD). Average O-glycan occupancy was determined based upon the amount of mannitol recovered."}, "[2]": {"system": "O-glycosylation of anti-Her2 heavy chain (Hc) in Pichia pastoris strain yGLY4280", "assay": "Western blot of anti-Her2 heavy chain O-glycosylation with 2-fold dilutions of Pmt inhibitor in 96-well plates (FIG. 1)", "format": "cell-based", "conditions": "2-fold dilutions 5 to 0.009 ug/mL, 24 hours; for concentration as low as which O-glycosylation of anti-Her2 Hc was effectively reduced: Western blot", "description": "FIG. 1 illustrates the effect of Pmt inhibitors including the novel inhibitor shown as Example 4 on O-glycosylation of secreted recombinant monoclonal antibody in Pichia pastoris. […] Western blotting using an anti-human H+L antibody was used to detect heavy (Hc) and light (Lc) chains in the growth media of strains treated with increasing amounts of Pmt inhibitor (higher doses in left lanes). The slowest migrating band (marked with asterisk) indicates the O-glycosylated Hc which is eliminated by Pmt inhibitor treatment. […] Strain yGLY4280 was inoculated into 96-well deep well plates (Qiagen, Valencia, Calif.) containing 0.5 ml of BMGY media per well. After 24 hours growth with vigorous shaking, the 96-well plate was centrifuged at 2,000 rpm for five minutes to pellet cells. The media was removed and, following a wash step with 0.5 mL of BMMY media, the cells resuspended in 0.2 mL BMMY media in which Pmt inhibitors were diluted 2-fold across the rows (11 wells). Well #1 contained 5 ug/mL of inhibitor, well #2 contained 2.5 ug/mL and so on until well #10 contained 0.009 ug/mL; well #11 contained no inhibitor. After an additional 24 hours growth with vigorous shaking, the plate was centrifuged at 2,000 rpm for five minutes to pellet cells, and the cleared supernatant subjected to Western blot analysis to detect anti-Her2 expression. The Western blotting was performed as follows: seven μL of the supernatants were separated by reducing polyacrylamide gel electrophoresis (SDS-PAGE) according to Laemmli, U. K. (1970) Nature 227, 680-685 and then electroblotted onto nitrocellulose membranes (Schleicher & Schuell, now Whatman, Inc., Florham Park, N.J.). Anti-Her2 antibody chains were detected on the Western blots using a peroxidase-conjugated anti-human Hc and Lc antibody (Calbiochem/EMD Biosciences, La Jolla, Calif.) and developed using the ImmunoPure Metal Enhanced DAB Substrate Kit (Pierce Biotechnology, Rockford, Ill.)."}}, "data": [{"smiles": "COCC(COC)(Oc1cc(/C=C2/SC(=S)N(CC(=O)O)C2=O)ccc1OCCc1ccc(F)cc1)c1ccccc1", "note": "[Example 1]", "values": [{"measurement": "O-glycan occupancy (moles O-mannose/moles Ab)", "setting": "[1]", "value": 4.1, "unit": "moles O-mannose/moles Ab"}]}, {"smiles": "O=C(O)CN1C(=O)/C(=C/c2ccc(OCCc3ccc(F)cc3)c(OC(c3ccccc3)c3ccccc3)c2)SC1=S", "note": "[Example 2]", "values": [{"measurement": "O-glycan occupancy (moles O-mannose/moles Ab)", "setting": "[1]", "value": 4.3, "unit": "moles O-mannose/moles Ab"}]}, {"smiles": "O=C(O)CN1C(=O)/C(=C/c2ccc(OCCc3ccc(F)cc3)c(OC(c3ccccc3)C3CCCCC3)c2)SC1=S", "note": "(centres unmarked) [Example 3]", "values": [{"measurement": "O-glycan occupancy (moles O-mannose/moles Ab)", "setting": "[1]", "value": 5.5, "unit": "moles O-mannose/moles Ab"}]}, {"smiles": "CC(C)COCC(Oc1cc(/C=C2\\SC(=S)N(CC(=O)O)C2=O)ccc1OCCc1ccc(F)cc1)c1ccccc1", "note": "(centres unmarked) [Example 4]", "values": [{"measurement": "O-glycan occupancy (moles O-mannose/moles Ab)", "setting": "[1]", "value": 5.2, "unit": "moles O-mannose/moles Ab"}, {"measurement": "effect on O-glycosylation of anti-Her2 Hc (Western blot, in words)", "setting": "[2]; FIG. 1", "value": "reduced O-glycosylation in a dose-dependent fashion"}, {"measurement": "concentration as low as which O-glycosylation of anti-Her2 Hc was effectively reduced", "setting": "[2]", "value": 0.018, "unit": "µg/mL"}]}, {"smiles": "O=C(O)CN1C(=O)/C(=C/c2ccc(OCCc3ccccc3)c(OC(CO)c3ccccc3)c2)SC1=S", "note": "(centres unmarked) [Pmti-3, reference compound]", "values": [{"measurement": "O-glycan occupancy (moles O-mannose/moles Ab)", "setting": "[1]", "value": 8.1, "unit": "moles O-mannose/moles Ab"}, {"measurement": "concentration as low as which O-glycosylation of anti-Her2 Hc was effectively reduced", "setting": "[2]", "value": 0.018, "unit": "µg/mL"}]}]}
